According to patent US5721208A, “Glycopeptides a process for their preparation and their use” (Hoechst Aktiengesellschaft, priority 1991, dated 1998):

Assays:
Staph. aureus 285 = assay: Minimum bacteriostatic inhibitory concentration, Agar dilution method; type: cell-based
Strept. pyogenes 308 A = assay: as above; type: cell-based
Staph. aureus 503 = assay: as above; type: cell-based
Bact. fragilis 1313 = assay: as above; type: cell-based
[1] = tested on: Peptostrept. anaerob. 932; assay: as above; type: cell-based
Propioni acnes 6922 = assay: as above; type: cell-based
Bact. fragilis 312 = assay: as above; type: cell-based
Strept. faecium D = assay: as above; type: cell-based
Strept. pyogenes 77 A = assay: as above; type: cell-based
[2] = tested on: Clostridium perfringens 194; settings: Agar dilution method
Propioni acnes 6916 = assay: Minimum bacteriostatic inhibitory concentration, Agar dilution method; type: cell-based
Staph. aureus SG 511 = assay: as above; type: cell-based
Bact. vulgatus 1446 = assay: as above; type: cell-based
Escherichia coli DC 2 = assay: as above; type: cell-based
Bact. fragilis 960 = assay: as above; type: cell-based
[3] = tested on: Clostridium tetani ATCC 1940650; settings: Agar dilution method

## CC(C)CC(N)C(=O)NC1C(=O)NC(CC(N)=O)C(=O)NC2C(=O)NC3C(=O)NC(C(=O)NC(C(=O)O)c4cc(O)cc(O)c4-c4cc3ccc4O)C(OC3CC(C)(N)C(=O)C(C)O3)c3ccc(c(Cl)c3)Oc3cc2cc(c3O)Oc2ccc(cc2Cl)C1O (stereo not shown) [Desmethyl-desglucobalhimycin, desmethyl-desglucobalhimycin]
Staph. aureus 285
  Minimum bacteriostatic inhibitory concentration: 0.2 micrograms per milliliter
Strept. pyogenes 308 A
  Minimum bacteriostatic inhibitory concentration: 0.1 micrograms per milliliter
Staph. aureus 503
  Minimum bacteriostatic inhibitory concentration: 0.1 micrograms per milliliter
Bact. fragilis 1313
  Minimum bacteriostatic inhibitory concentration: 50 micrograms per milliliter
[1]
  Minimum bacteriostatic inhibitory concentration: 0.2 micrograms per milliliter
Propioni acnes 6922
  Minimum bacteriostatic inhibitory concentration: 0.1 micrograms per milliliter
Bact. fragilis 312
  Minimum bacteriostatic inhibitory concentration: 50 micrograms per milliliter
Strept. faecium D
  Minimum bacteriostatic inhibitory concentration: 0.2 micrograms per milliliter
Strept. pyogenes 77 A
  Minimum bacteriostatic inhibitory concentration: 0.1 micrograms per milliliter
[2]
  Minimum bacteriostatic inhibitory concentration: 0.1 micrograms per milliliter
Propioni acnes 6916
  Minimum bacteriostatic inhibitory concentration: 0.2 micrograms per milliliter
Staph. aureus SG 511
  Minimum bacteriostatic inhibitory concentration: 0.2 micrograms per milliliter
Bact. vulgatus 1446
  Minimum bacteriostatic inhibitory concentration: > 100 micrograms per milliliter
Escherichia coli DC 2
  Minimum bacteriostatic inhibitory concentration: > 100 micrograms per milliliter
Bact. fragilis 960
  Minimum bacteriostatic inhibitory concentration: 25 micrograms per milliliter

## balhimycin R
Staph. aureus 285
  Minimum bacteriostatic inhibitory concentration: 0.8 micrograms per milliliter
Strept. pyogenes 308 A
  Minimum bacteriostatic inhibitory concentration: 0.2 micrograms per milliliter
Staph. aureus 503
  Minimum bacteriostatic inhibitory concentration: 0.2 micrograms per milliliter
Bact. fragilis 1313
  Minimum bacteriostatic inhibitory concentration: > 100 micrograms per milliliter
[1]
  Minimum bacteriostatic inhibitory concentration: 100 micrograms per milliliter
Propioni acnes 6922
  Minimum bacteriostatic inhibitory concentration: 3.1 micrograms per milliliter
Bact. fragilis 312
  Minimum bacteriostatic inhibitory concentration: > 100 micrograms per milliliter
Strept. faecium D
  Minimum bacteriostatic inhibitory concentration: 0.4 micrograms per milliliter
Strept. pyogenes 77 A
  Minimum bacteriostatic inhibitory concentration: 0.2 micrograms per milliliter
[3]
  Minimum bacteriostatic inhibitory concentration: 100 micrograms per milliliter
Propioni acnes 6916
  Minimum bacteriostatic inhibitory concentration: 6.2 micrograms per milliliter
Staph. aureus SG 511
  Minimum bacteriostatic inhibitory concentration: 0.2 micrograms per milliliter
Bact. vulgatus 1446
  Minimum bacteriostatic inhibitory concentration: > 100 micrograms per milliliter
Escherichia coli DC 2
  Minimum bacteriostatic inhibitory concentration: 50 micrograms per milliliter
Bact. fragilis 960
  Minimum bacteriostatic inhibitory concentration: > 100 micrograms per milliliter

## balhimycin V
Staph. aureus 285
  Minimum bacteriostatic inhibitory concentration: 0.4 micrograms per milliliter
Strept. pyogenes 308 A
  Minimum bacteriostatic inhibitory concentration: 0.05 micrograms per milliliter
Staph. aureus 503
  Minimum bacteriostatic inhibitory concentration: 0.1 micrograms per milliliter
Strept. faecium D
  Minimum bacteriostatic inhibitory concentration: 0.2 micrograms per milliliter
Strept. pyogenes 77 A
  Minimum bacteriostatic inhibitory concentration: 0.05 micrograms per milliliter
Staph. aureus SG 511
  Minimum bacteriostatic inhibitory concentration: 0.4 micrograms per milliliter
Escherichia coli DC 2
  Minimum bacteriostatic inhibitory concentration: > 100 micrograms per milliliter
